# Experimental data published in patent publication US10383806B2, “Compositions including sesamin, methods of making and using the same in skin anti-aging and skin lightening applications” (Access Business Group International LLC, priority 2015, dated 2019).
# Columns and labels:
# Format in all cases: cell-based
# [1] = system: antioxidant response elements; experiment: Anti-oxidant response element (ARE) luciferase reporter assay in stable HepG2 cells; conditions: 48 hours, FIG. 4
# Description: Yet other embodiments relate to a method of decreasing a skin anti-inflammatory response comprising applying to the skin a composition in a cosmetically effective amount sufficient to decrease the skin anti-inflammatory response, wherein the composition comprises an amount of sesamin, individually or in combination with at least one other plant ingredient or plant extract from Pistacia (e.g., Pistacia lentiscus), Leontopodium (e.g., Leontopodium alpinium), Spirulina (e.g., Spirulina platensis), Oroxylum (e.g., Oroxylum indicum), Schizandra (e.g., Schizandra chinesis), Moringa (e.g., Moringa pterygosperma), Houttuynia (e.g., Houttuynia cordata), Isodon (e.g., Isodon japonicus), and Saxifraga (e.g., Saxifraga stolonifera), or mixtures thereof, and at least one pharmaceutically or cosmetically acceptable vehicle. […] Use of compositions that are capable of decreasing a skin anti-inflammatory response in the skin may result in improvement of the appearance of skin or at least one sign of aging in skin. Sesamin complex was dissolved in 70% DMSO and finally diluted […] in MEM containing Myrosinase (0.625 U/mL) and Ascorbic Acid (350 uM) and the final concentration of DMSO was 0.14%. […] The cells were grown in minimum essential media (MEM) with 10% fetal bovine serum and 150 ug/mL of hygromycin in a humidified atmosphere containing 5% CO2 at 37 C. For the assay, the cells were seeded at a density of 31,250 cells per well in a 96-well, white-walled, collagen coated plate. The following day, the media was removed and fresh growth media was added. After 24 hours, the cells were treated with test compounds for 48 hours (100 ug/mL, 50 ug/mL, 25 ug/mL, 12.5 ug/mL, and […]), lysed and the amount of luciferase produced was measured using a luciferase activity assay. Data were captured as relative luminescence units (RLUs) using an M5 Spectrophotometer (Molecular Devices, Inc).
# [2] = system: Melan-a cells; experiment: Melanin inhibition assay in Melan-a cells; conditions: 4 days, concentrations of FIG. 5
# Description: Melan-a cells seeded at a density of 5×10^4 cells per well were grown in a 24 well plate. Sesamin complex (S1) (at the concentrations indicated in the legend of FIG. 5) was dissolved in (DMSO) such that the final concentration of DMSO in the culture medium was maintained at 0.05%. Sesamin complex and Phenylthiourea (PTU) was added to the cells in triplicate and incubated for 2 days following which the cells were again treated with compounds supplemented with fresh medium. PTU at a concentration of 60 ug/ml was used as a positive inhibitor control in the melanin inhibition assay. Two days later, melanin was extracted and quantitated by normalizing with the protein content. After 4 days, melanin was extracted and cleared of the cell debris from each of the wells were dissolved by treating with 2N NaOH in 20% DMSO and incubating the samples for 60 min at 55° C. The melanin content in each sample was determined by measuring absorbance at 490 nm. Data were presented as % melanin content normalized to protein content in untreated wells compared to % melanin content extracted from samples.
# [3] = target: T1, Gal4-PPARγ-LBD fusion protein (Homo sapiens, UniProt P37231); experiment: PPARγ activation luciferase reporter assay (Gal4-PPARγ-LBD, CHO-K1 cells); conditions: 18-24 hours, FIG. 6, n=2
# T1 construct: The PPARγ-LBD (residues 203-477) was PCR amplified from human MGC: 5041; expressed in transfected cells
# T1 sequence (P37231 203-477 isoform P37231-2): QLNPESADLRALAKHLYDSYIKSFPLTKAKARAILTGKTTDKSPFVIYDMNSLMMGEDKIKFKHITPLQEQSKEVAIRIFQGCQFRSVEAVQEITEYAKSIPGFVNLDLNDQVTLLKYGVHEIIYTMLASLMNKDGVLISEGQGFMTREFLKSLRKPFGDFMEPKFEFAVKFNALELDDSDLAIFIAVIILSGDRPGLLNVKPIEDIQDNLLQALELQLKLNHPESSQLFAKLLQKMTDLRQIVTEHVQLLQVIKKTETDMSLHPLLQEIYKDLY
# Description: Troglitazone (positive control) was purchased from Sigma Corp. Sesamin sample was purchased from Virun Chemicals and a stock solution at a concentration of 100 mg/mL was prepared in 70% Dimethyl Sulfoxide (DMSO) and diluted to the indicated concentrations as shown in the figure. The final concentration of DMSO was maintained at 0.05% or lower. Stock solutions of troglitzone and sesamin samples were solubilized and diluted in DMSO prior to dilution in Dubelco's minimum essential media (DMEM) containing 0.5% Bovine serum Albumin (BSA) for testing. To study the activation of PPARγ in a luciferase reporter assay, a Gal4-PPARγ-ligand-binding domain (LBD) vector was created in a modified pF[…] (BIND) vector (Promega Inc). The PPARγ-LBD (residues 203-477) was PCR amplified from human MGC: 5041 (pSPORT6; Open Biosystems Inc.) and ligated into the pBIND3 vector forming a Gal4-PPARγ-LBD fusion protein. […] Luciferase was quantified using an activity assay from Biotium Inc. Briefly, at time of analysis, cells in white-walled 96-well plates were rinsed once using 50 μL of DPBS, then lysed with 20 μL of 1× passive lysis buffer. […] Reconstituted, room temperature D-luciferin was added (100 μL per well) and light emission was immediately read using an M-5 spectrophotometer (Molecular Devices, Inc.).
compound,measurement,setting,value
c1cc2c(cc1[C@H]1OC[C@H]3[C@@H]1CO[C@@H]3c1ccc3c(c1)OCO3)OCO2 [sesamin],anti-oxidant response (% Response),"[1]; 50 ug/mL, second highest response",activation of anti-oxidant pathways
same,anti-oxidant response (% Response),[1]; 100 ug/mL,highest anti-oxidant response
same,"anti-oxidant response (% Response, luciferase RLU normalized to untreated 0% and sulforophane 100%)","[1]; HepG2 ARE-luciferase cells, 6.75-100 ug/mL",dose-dependent anti-oxidant response
same,melanin inhibition (% melanin content normalized to protein content),[2],dose dependent melanin inhibition
same,activation of PPARγ (percent of control response),[3]; sesamin at 70% (μg/mL),dose-dependent activation of PPARγ
same,activation of PPARγ (percent of control response),[3]; sesamin at 90% (μg/mL),dose-dependent activation of PPARγ
